Laboratory results from patent US11051515B2, “3-acyl-benzamides and their use as herbicides” (Bayer Aktiengesellschaft, priority 2017, dated 2021).

What was measured:
SETVI [1] = assay: Pre-emergence action against SETVI; type: in vivo, Setaria viridis; conditions: pre-emergence, dosage 320 g/ha, scored visually after 3 weeks vs untreated controls
How it was run: (§1)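 Seeds sown in sandy loam in wood-fiber pots and covered with soil. Greenhouse growth; visual damage scored after 3 weeks versus untreated controls (100% = dead, 0% = like control).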

AVEFA [2] = assay: Post-emergence action against AVEFA; type: in vivo, Avena fatua; conditions: post-emergence, dosage 80 g/ha, visual assessment about 3 weeks after treatment vs untreated controls
Protocol: (§2) Seeds of monocotyledonous and dicotyledonous weed and crop plants are laid out in sandy loam soil in wood-fiber pots, covered with soil and cultivated in a greenhouse under good growth conditions. 2 to 3 weeks after sowing, the test plants are treated at the one-leaf stage. The compounds of the invention, formulated in the form of wettable powders (WP) or as emulsion concentrates (EC), are then sprayed onto the green parts of the plants in the form of an aqueous suspension or emulsion at a water application rate equating to […], with addition of 0.2% wetting agent. After the test plants have been left to stand in the greenhouse under optimal growth conditions for about 3 weeks, the action of the preparations is assessed visually in comparison to untreated controls (herbicidal action in percent (%): 100% activity=the plants have died, 0% activity=like control plants). […] At the same time, inventive compounds leave Gramineae crops such as barley, wheat, rye, millet/Sorghum, corn or rice virtually undamaged when applied post-emergence, even at high active ingredient dosages. In addition, some substances are also harmless to dicotyledonous crops such as soya, cotton, oilseed rape, sugar beet or potatoes. Some of the compounds according to the invention have high selectivity and are therefore suitable for controlling unwanted vegetation in agricultural crops by the post-emergence method. The data of Tables B18 to B34 below illustrate, in an exemplary manner, the […] herbicidal action of the compounds according to the invention, the herbicidal activity being stated in percent.

POLCO = assay: Pre-emergence action against POLCO; type: in vivo, Polygonum convolvulus; conditions: Dosage 320 g/ha, pre-emergence
How it was run: as §1

ALOMY [3] = assay: Post-emergence action against ALOMY; type: in vivo, Alopecurus myosuroides; conditions: Dosage 80 g/ha, post-emergence
Protocol: as §2

SETVI [4] = assay: Post-emergence action against SETVI; type: in vivo, Setaria viridis; conditions: post-emergence, dosage 80 g/ha, visual assessment about 3 weeks after treatment vs untreated controls
How it was run: (§3)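 Weeds grown in sandy loam in greenhouse, treated at one-leaf stage (2–3 weeks after sowing) with WP or EC formulations sprayed as aqueous suspension/emulsion at 600 to […] water with 0.2% wetting agent. Visual rating after about 3 weeks versus untreated controls, as % herbicidal action (100% = plants dead, 0% = like control).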

ABUTH [5] = assay: Post-emergence action against ABUTH; type: in vivo, Abutilon theophrasti; conditions: post-emergence, dosage 80 g/ha, visual assessment about 3 weeks after treatment vs untreated controls
How it was run: as §3

AVEFA [6] = assay: Pre-emergence action against AVEFA; type: in vivo, Avena fatua; conditions: dosage 320 g/ha, scored visually after 3 weeks vs untreated controls
How it was run: as §1

PHBPU = assay: Post-emergence action against PHBPU; type: in vivo, Pharbitis purpurea; conditions: post-emergence, dosage 80 g/ha
How it was run: as §3

STEME [7] = assay: Post-emergence action against STEME; type: in vivo, Stellaria media; conditions: post-emergence, dosage 80 g/ha
How it was run: as §3

ALOMY [8] = assay: Pre-emergence action against ALOMY; type: in vivo, Alopecurus myosuroides; conditions: dosage 320 g/ha, pre-emergence, scored visually after 3 weeks vs untreated controls, 100% = plants have died, 0% = like control plants
How it was run: as §1

CYPES = assay: Post-emergence action against CYPES; type: in vivo, Cyperus esculentus; conditions: post-emergence, dosage 80 g/ha, visual assessment about 3 weeks after treatment vs untreated controls
How it was run: as §3

VIOTR [9] = assay: Post-emergence action against VIOTR; type: in vivo, Viola tricolor; conditions: post-emergence, dosage 80 g/ha
How it was run: as §3

STEME [10] = assay: Pre-emergence action against STEME; type: in vivo, Stellaria media; conditions: Dosage 320 g/ha, pre-emergence
How it was run: as §1

AMARE [11] = assay: Post-emergence action against AMARE; type: in vivo, Amaranthus retroflexus; conditions: post-emergence, dosage 80 g/ha, visual assessment about 3 weeks after treatment vs untreated controls
How it was run: as §3

ECHCG [12] = assay: Pre-emergence action against ECHCG; type: in vivo, Echinochloa crus-galli; conditions: pre-emergence, dosage 320 g/ha, scored visually after 3 weeks vs untreated controls
How it was run: as §1

ECHCG [13] = assay: Post-emergence action against ECHCG; type: in vivo, Echinochloa crus-galli; conditions: post-emergence, dosage 80 g/ha, visual assessment about 3 weeks after treatment vs untreated controls
How it was run: as §3

MATIN [14] = assay: Pre-emergence action against MATIN; type: in vivo, Matricaria inodora; conditions: Dosage 320 g/ha, pre-emergence
How it was run: as §1

MATIN [15] = assay: Post-emergence action against MATIN; type: in vivo, Matricaria inodora; conditions: post-emergence, dosage 80 g/ha, visual assessment about 3 weeks after treatment vs untreated controls
How it was run: as §3

AMARE [16] = assay: Pre-emergence action against AMARE; type: in vivo, Amaranthus retroflexus; conditions: pre-emergence, dosage 320 g/ha, scored visually after 3 weeks vs untreated controls
How it was run: as §1

VERPE [17] = assay: Pre-emergence action against VERPE; type: in vivo, Veronica persica; conditions: Dosage 320 g/ha, pre-emergence
How it was run: as §1

VIOTR [18] = assay: Pre-emergence action against VIOTR; type: in vivo, Viola tricolor; conditions: Dosage 320 g/ha, pre-emergence
How it was run: as §1

VERPE [19] = assay: Post-emergence action against VERPE; type: in vivo, Veronica persica; conditions: dosage 80 g/ha
How it was run: as §3

ABUTH [20] = assay: Pre-emergence action against ABUTH; type: in vivo, Abutilon theophrasti; conditions: pre-emergence, dosage 320 g/ha, scored visually after 3 weeks vs untreated controls
How it was run: as §1

**Q.** `CCCn1nnnc1NC(=O)c1ccc(C(F)(F)F)c(C(=O)C2CC2)c1Cl` [3-141] was tested. Which “SETVI (Table B8, pre-emergence herbicidal activity)” value (SETVI [1]) did it give?
**A.** 100%

**Q.** And the “Post-emergence action against AVEFA (herbicidal action in percent)” value (AVEFA [2])?
**A.** 100%

**Q.** What about the “Pre-emergence action against POLCO” value (POLCO) of the same molecule?
**A.** 90%

**Q.** What about the “Post-emergence action against ALOMY” value (ALOMY [3]) of the same molecule?
**A.** 80%

**Q.** What about the “Post-emergence action against SETVI (herbicidal action in percent)” value (SETVI [4]) of the same molecule?
**A.** 100%

**Q.** What about the “Post-emergence action against ABUTH (herbicidal action in percent)” value (ABUTH [5]) of the same molecule?
**A.** 80%

**Q.** And the “Pre-emergence action against AVEFA (herbicidal activity)” value (AVEFA [6])?
**A.** 80%

**Q.** What about the “Post-emergence action against PHBPU” value (PHBPU) of the same molecule?
**A.** 100

**Q.** What about the “Post-emergence action against STEME” value (STEME [7]) of the same molecule?
**A.** 100

**Q.** What about the “Pre-emergence action against ALOMY (herbicidal activity in percent)” value (ALOMY [8]) of the same molecule?
**A.** 90%

**Q.** And the “Post-emergence action against CYPES (herbicidal action in percent)” value (CYPES)?
**A.** 80%

**Q.** And the “Post-emergence action against VIOTR” value (VIOTR [9])?
**A.** 100

**Q.** And the “Pre-emergence action against STEME” value (STEME [10])?
**A.** 100%

**Q.** And the “Post-emergence action against AMARE (herbicidal action in percent)” value (AMARE [11])?
**A.** 100%

**Q.** And the “Pre-emergence action against ECHCG (herbicidal activity)” value (ECHCG [12])?
**A.** 100%

**Q.** And the “Post-emergence action against ECHCG (herbicidal action in percent)” value (ECHCG [13])?
**A.** 100%

**Q.** What about the “Pre-emergence action against MATIN” value (MATIN [14]) of the same molecule?
**A.** 100%

**Q.** What about the “Post-emergence action against MATIN (herbicidal action in percent)” value (MATIN [15]) of the same molecule?
**A.** 100%

**Q.** And the “Pre-emergence action against AMARE (herbicidal activity)” value (AMARE [16])?
**A.** 100%

**Q.** And the “Pre-emergence action against VERPE” value (VERPE [17])?
**A.** 100%

**Q.** And the “Pre-emergence action against VIOTR” value (VIOTR [18])?
**A.** 100%

**Q.** What about the “Post-emergence action against VERPE” value (VERPE [19]) of the same molecule?
**A.** 100

**Q.** What about the “Pre-emergence action against ABUTH (herbicidal activity)” value (ABUTH [20]) of the same molecule?
**A.** 100%

**Q.** Which results are given for `CSc1ccc(C(=O)Nc2nnnn2C)c(Cl)c1C(=O)C1CC1` [1-123]?
**A.** pest or weed control at 320 g/ha (SETVI [1]; Setaria viridis, 504 h, read-out: SETVI (Table B8, pre-emergence herbicidal activity)): 100%; pest or weed control at 80 g/ha (AVEFA [2]; Avena fatua, 504 h, read-out: Post-emergence action against AVEFA (herbicidal action in percent)): 100%; pest or weed control at 80 g/ha (ALOMY [3]; Alopecurus myosuroides, 504 h): 80%; pest or weed control at 80 g/ha (SETVI [4]; Setaria viridis, 504 h, read-out: Post-emergence action against SETVI (herbicidal action in percent)): 100%; pest or weed control at 80 g/ha (ABUTH [5]; Abutilon theophrasti, 504 h, read-out: Post-emergence action against ABUTH (herbicidal action in percent)): 100%; pest or weed control at 320 g/ha (AVEFA [6]; Avena fatua, 504 h, read-out: Pre-emergence action against AVEFA (herbicidal activity)): 80%; pest or weed control at 80 g/ha (PHBPU; Ipomoea purpurea, 504 h): 90%; pest or weed control at 80 g/ha (STEME [7]; Stellaria media, 504 h): 100%; pest or weed control at 320 g/ha (ALOMY [8]; Alopecurus myosuroides, 504 h, read-out: Pre-emergence action against ALOMY (herbicidal activity in percent)): 90%; pest or weed control at 80 g/ha (VIOTR [9]; Viola tricolor, 504 h): 100%; pest or weed control at 320 g/ha (STEME [10]; Stellaria media, 504 h): 90%; pest or weed control at 80 g/ha (AMARE [11]; Amaranthus retroflexus, 504 h, read-out: Post-emergence action against AMARE (herbicidal action in percent)): 100%; pest or weed control at 320 g/ha (ECHCG [12]; Echinochloa crus-galli, 504 h, read-out: Pre-emergence action against ECHCG (herbicidal activity)): 100%; pest or weed control at 80 g/ha (ECHCG [13]; Echinochloa crus-galli, 504 h, read-out: Post-emergence action against ECHCG (herbicidal action in percent)): 100%; pest or weed control at 320 g/ha (MATIN [14]; Tripleurospermum inodorum, 504 h): 100%; pest or weed control at 80 g/ha (MATIN [15]; Tripleurospermum inodorum, 504 h, read-out: Post-emergence action against MATIN (herbicidal action in percent)): 100%; pest or weed control at 320 g/ha (AMARE [16]; Amaranthus retroflexus, 504 h, read-out: Pre-emergence action against AMARE (herbicidal activity)): 100%; pest or weed control at 320 g/ha (VERPE [17]; Veronica persica, 504 h): 100%; pest or weed control at 320 g/ha (VIOTR [18]; Viola tricolor, 504 h): 100%; pest or weed control at 80 g/ha (VERPE [19]; Veronica persica, 504 h): 100%; pest or weed control at 320 g/ha (ABUTH [20]; Abutilon theophrasti, 504 h, read-out: Pre-emergence action against ABUTH (herbicidal activity)): 90%
